Assay results from patent publication US9427439B1, “Methods and compositions for recovery from stroke” (EIP Pharma, LLC, priority 2015, dated 2016).

How the values were obtained:
animal models of stroke = settings: administered 24-hours after stroke; cited from earlier work
[1] = system: IL-1β production and signaling; settings: cited from earlier work
[2] = brain distribution in pre-clinical studies; format: in vivo
Text: The inhibition of MAPK by VX-745 blocks the downstream synthesis of inflammatory cytokines TNF-α and IL-1β. […] VX-745 preferentially distributes to the brain with drug concentrations in the brain in pre-clinical studies being approximately two-fold higher than in the blood. Stroke

IL-1β = IL-1β ELISA of brain at termination of tMCAO study; format: in vivo, rat; settings: right minus left hemisphere; Groups 2M and 3M versus 1M; n=18 per group
Text: The brains of all animals were harvested on Day 44. Rats were sacrificed by CO2 inhalation. Brains were harvested from all animals in each group, divided to left and right hemisphere, weighed, and snap frozen.
Brains were harvested at study termination. Each brain was dissected into two hemispheres and each hemisphere was weighed and enclosed into tubes marked Left or Right. Each tube was immediately frozen in liquid nitrogen and stored at (−80)° C. The tissues were defrosted and homogenized in 1 ml/200 mg tissue of 20 mM Tris-HCL pH 7.4 containing a protease inhibitor cocktail (50 μl/ml). Samples were centrifuged at 10,000 g for 15 min at 4°. Clear supernatants were aliquoted (150 μl/aliquot) and stored at (−80)° C. until ELISA assays were performed. ELISA assay was executed according to kit instructions. Standards and samples were tested in duplicates.
Following study termination, animals were also tested for IL-1β brain levels using the ELISA system (see FIG. 8 for standard curves). The variability of the results was too large to allow definitive conclusions. All the results below the Lower Limit of Quantification (LLOQ) were assigned the LLOQ value of 5 pg/ml. Then, results for the uninjured left side were subtracted from the results of the right side. The distribution for individual rats is given in the figure below (n=18 in each of the study groups) (FIG. 9).

[3] = system: rat model of stroke (transient MCAO); assay: tMCAO rat stroke model: forelimb placement test; format: in vivo; settings: Groups 2M (1.5 mg/kg) and 3M (4.5 mg/kg), PO twice a day; Week 4 and Week 6
Description: (§1) Group 1M: 20 tMCAO animals treated twice-a-day with vehicle from Day 3 (day 1 being day of stroke surgery) to Day 42 (via PO gavage)
(§2) Group 2M: 22 tMCAO animals treated twice-a-day with VX-745 (1.5 mg/kg) from Day 3 (day 1 being day of stroke surgery) to Day 42 (via PO gavage)
(§3) Group 3M: 21 tMCAO animals treated twice-a-day with VX-745 (4.5 mg/kg) from Day 3 (day 1 being day of stroke surgery) to Day 42 (via PO gavage)
(§4) Transient middle cerebral artery occlusion was performed according to the method described in R. Schmid-Elsaesser et al., Stroke, 29(10):2162-2170 (1998). The right Common Carotid Artery (CCA) was exposed through a midline neck incision and carefully dissected free from surrounding nerves and fascia—from its bifurcation to the base of the skull. The occipital artery branches of the ECA (External Carotid Artery) were then isolated, and these branches were dissected and coagulated. The ECA was dissected further distally and coagulated along with the terminal lingual and maxillary artery branches, which was then divided. The ICA (Internal Carotid Artery) was isolated and carefully separated from the adjacent vagus nerve, and the pterygopalatine artery was ligated close to its origin with a 5-0 nylon suture (SMI, Belgium). […]

cytokine signaling = settings: cited from earlier work
[4] = system: rat model of stroke (transient MCAO); assay: tMCAO rat stroke model: Neuroscore (mNSS); format: in vivo; settings: Groups 2M (1.5 mg/kg) and 3M (4.5 mg/kg), PO twice a day from Day 3 to Day 42
Description: as §1, §2, §3, §4

[5] = treatment of rheumatoid arthritis; cited from earlier work
[6] = system: rat model of stroke (transient MCAO); assay: tMCAO rat stroke model: body swing test; format: in vivo
Description: as §1, §2, §3
(§5) Transient middle cerebral artery occlusion was performed according to the method described in R. Schmid-Elsaesser et al., Stroke, 29(10):2162-2170 (1998). The right Common Carotid Artery (CCA) was exposed through a midline neck incision and carefully dissected free from surrounding nerves and fascia—from its bifurcation to the base of the skull. The occipital artery branches of the ECA (External Carotid Artery) were then isolated, and these branches were dissected and coagulated. […]
The rat was held approximately one inch from the base of its tail. […] A swing was recorded whenever the rat moved its head out of the vertical axis to either side. Before attempting another swing, the rat had must return to the vertical position for the next swing to be counted. Twenty (20) total swings were counted. […] Body swing scores were expressed as a percentage of rightward over total swings. […]

[7] = system: cytokine production (TNF-α and IL-1β) in whole blood; settings: inhibition of cytokine production (anti-inflammatory activity); cited from earlier work
[8] = tMCAO study: body weight, clinical signs, mortality; format: in vivo, rat
Description: Altogether 76 adult male Sprague Dawley rats, purchased from Harlan Laboratories, (Israel), and weighing 300-350 g were used for the experiment. Animals were housed at a standard temperature (20-24° C.) and in a light-controlled environment (12 hours light/12 hours dark) with ad libitum access to food and water.
as §1, §2, §3
Animals were handled at a minimum for three days before the surgery. Baseline measures were taken before stroke was induced. Stroke surgery occurred on Day 1. On Day 2, 24 hours post-stroke surgery, Neuroscore testing was performed. Only animals reaching and exceeding Neuroscore criteria was included in the study. On Days 3-42, treatment with vehicle or VX-745 was administered twice a day for 40 days via PO (oral) gavage for all groups. Behavioral tests for all groups were conducted on weeks 4 and 6. Animals were sacrificed on Day 44 and brains were harvested.
Statistical analysis was performed when applicable by two-way ANOVA for repeated measures, followed by Bonferroni post-hoc tests for all the data presented in the results section (*p<0.05; **p<0.01; ***p<0.001).

[9] = system: rat model of stroke (transient MCAO); assay: tMCAO rat stroke model: stepping test; format: in vivo; settings: Groups 2M (1.5 mg/kg) and 3M (4.5 mg/kg), PO twice a day; Week 4 up to Week 6
Description: as §1, §2, §3, §5
Animals were tested for forelimb akinesia in a stepping test (ST). The animal was held with its hind limbs fixed in one hand and the forelimb, not to be monitored, in the other, while the unrestrained fore-paw touches the table. The number of adjusting steps were counted while the animal was moved sideways along the table surface (85 cm during approximately five seconds), in the forehand & backhand direction for both forelimbs. […]

SMILES	effect on recovery from neurologic deficit (animal models of stroke)	IL-1β production and signaling in vitro [1]	drug concentrations in the brain versus in the blood [2]	IL-1β levels in the brain at study termination, between the groups (IL-1β)	forelimb placement test score versus vehicle control group 1M [3]	IC50 for inhibition of cytokine signaling relative to IC50 for cytokine production (cytokine signaling)	neuroscore delta (change from Day 2 to Week 4 or Week 6) versus vehicle control group 1M [4]	absolute neuroscore versus vehicle control group 1M ([4]; Weeks 4 and 6)	mean blood concentration [5]	body swing test (difference between left turn and right turn) versus vehicle control group 1M ([6]; Groups 2M (1.5 mg/kg) and 3M (4.5 mg/kg), PO twice a day)	body swing test, extent of recovery ([6]; particularly in the 4.5 mg/kg dose group)	whole blood IC50 [7] [µg/mL]	body weight, differences between groups ([8]; all groups through the study, two-way ANOVA, Bonferroni)	rats that died after treatment initiation ([8]; group 2M (1.5 mg/kg), within two weeks of treatment initiation)	general clinical signs, differences between groups ([8]; tMCAO rats, 1.5 and 4.5 mg/kg PO twice a day)	stepping test (left forelimb), number of steps versus vehicle control group 1M [9]
C[S+]([O-])c1ccc(-c2nc(-c3ccc(F)cc3)c(-c3ccncc3)[nH]2)cc1 (stereo not shown) [SB203850]	no significant effect	–	–	–	–	–	–	–	–	–	–	–	–	–	–	–
O=c1ncn2nc(Sc3ccc(F)cc3F)ccc2c1-c1c(Cl)cccc1Cl [VX-745]	–	inhibits IL-1β production and signaling in vitro	approximately two-fold	No statistically significant differences	Statistically significant differences	half that for cytokine production	statistically significant difference	statistically significant difference	approximately 75 ng/mL	statistically significant difference	near normalization	0.065 to 0.08	No statistically significant differences	one	no observed differences	statistically significant difference
